Columns and labels:
[1] = liver of rats treated with Aroclor 1254; cited from earlier work
[2] = test system: rat liver microsomes; format: in vitro ADME; conditions: for Enantiomeric fraction (EF) of OH-PCB metabolite: column not specified, microsomal incubation 50 μM PCB, 30 min
[3] = test system: Ryanodine receptor (RyR); conditions: enantiospecific, only this atropisomer active; cited from earlier work

Structure (SMILES)	Enantiomeric fraction (EF) of OH-PCB metabolite [2]	also measured
Clc1ccc(Cl)c(-c2c(Cl)ccc(Cl)c2Cl)c1 [PCB 95]		Enantiomeric fraction (EF) in liver [1]: 0.63
Oc1cc(Cl)c(Cl)c(-c2cc(Cl)ccc2Cl)c1Cl [5–95]	approximately 0.33	
Clc1cc(Cl)c(-c2c(Cl)ccc(Cl)c2Cl)cc1Cl [PCB 149]		Enantiomeric fraction (EF) in liver [1]: 0.45
Clc1ccc(Cl)c(-c2c(Cl)ccc(Cl)c2Cl)c1Cl [(-)-PCB 136, 2,2′,3,3′,6,6′-hexachlorobiphenyl]		Sensitization of RyRs [3]: active
Oc1cc(Cl)c(Cl)c(-c2cc(Cl)c(Cl)cc2Cl)c1Cl [5–149]	0.65	
Oc1cc(Cl)c(Cl)c(-c2ccc(Cl)c(Cl)c2Cl)c1Cl [5′-132]	0.31	Enantiomeric fraction, CB column ([2]; Cyclosil-B column, analysis conducted at 170 °C, metabolite analysed as MeO-PCB): 0.31 ^a, ^#
Oc1cc(Cl)c(Cl)c(-c2ccc(Cl)cc2Cl)c1Cl [5–91]	0.54	

Source: article PMC3216237 (Environmental science & technology, 2011)
